Where “and” joins values, the source holds several entries; their conditions need not be identical. Equal entries are not always repeated.
What was measured:
[1] = Serum selenium maintenance / selenium sufficiency in piglets injected at three days; type: in vivo; conditions: in words; 200 mg Fe^+3 per animal; 3 weeks
Procedure: (§1) In another study, two sows were kept on a low-selenium diet during the last four weeks of pregnancy and during lactation. The 25 piglets born alive were divided at the age of three days into two groups (12+13), both groups containing piglets from both sows. Blood samples were taken from all piglets for determination of selenium and glutathione peroxidase values and for blood cell counts. The test group (13 piglets) were given a subcutaneous injection of 200 mg (2 ml) Fe^+3 as ferric dextran, to which sodium selenite had been added to give a Se^+4 content of 0.15 mg/ml. The control group (12) received 200 mg Fe^+3 as ferric dextran without Se^+4. One piglet in the control group later died. After eight days, blood samples were taken from all piglets. […] The difference was statistically significant at the 95% confidence interval using the non-parametric Wilcoxson-Mann-Whitney rank sum test. […] This is an important finding that will play a major role in both human and veterinary medicine. The use of selenium in combination with iron is likely to increase considerably. […] Selenium is probably stored as an iron-selenium complex, which explains the unexpected sufficiency of a single dose given at an early stage up to a weight of about 8 . . . 10 kg.

erythrocyte count = assay: Increase in erythrocyte count in piglets, electronic counter; type: in vivo; conditions: eight days after injection of 200 mg Fe^+3 as ferric dextran, with or without Se^+4 0.15 mg/ml (2 ml, s.c. in test group); difference significant at 95% confidence interval
Procedure: as §1

glutathione peroxidase [2] = assay: Serum glutathione peroxidase activity in newborn piglets (Table 2); type: in vivo
Procedure: (§2) Six newborn piglets weighing about 1 kg were given an intramuscular dose of 2 ml of the new iron-selenium preparation, each ml containing 100 mg Fe^+3 as ferric dextran and 0.15 mg Se^+4 as sodium selenite. […] This was in spite of the fact that the animals were fed on milk from a sow kept on a low-selenium diet during this period. Five similar piglets, given the same diet, formed the control group. The control animals were given 200 mg Fe^+3 ferric dextran intramuscularly at the same time as injection of the test group. Four weeks later, mean selenium levels of 55.4 ng/ml and a mean glutathione perioxidase activity of 710.8 IU/l were found in their serum. The differences between the mean values of the test group and the control group were statistically significant, the glutathione peroxidase difference at the 99% confidence interval and the Se difference at the 95% interval (Wilcoxson-Mann-Whitney rank sum test).
(§3) 0.3 mg/Se/kg together with 200 mg Fe^+3

[3] = Serum selenium level in newborn piglets (Table 2); type: in vivo
Procedure: as §2, §3

[4] = Growth (weight increase) of piglets injected at three days; type: in vivo; conditions: in words; 200 mg Fe^+3 per animal; 3 weeks
Procedure: as §1

[5] = in words; background statement; cited from earlier work
glutathione peroxidase [6] = assay: Serum glutathione peroxidase (gSH-Px) activity in selenium-deficient pigs (Table 1); type: in vivo
Procedure: (§4) The new type of preparation containing sodium selenite and ferric dextran was administered intramuscularly to three pigs, weight 15 . . . 25 kg, suffering from selenium deficiency. Another three pigs suffering from selenium deficiency were given the same dose of sodium selenite. Serum selenium content and glutathione peroxidase enzyme activity were determined as a measure of the bioactivity of selenium in the organism. […] All the pigs were on the same diet throughout the test period.
(§5) Animals 1, 2 and 3 received 0.06 mg Se per kg body weight intramuscularly
(§6) Animals 4, 5 and 6 received 0.06 mg Se per kg body weight intramuscularly
(§7) as sodium selenite combined with ferric dextran, 200 mg Fe per dose.

[7] = Serum selenium content in selenium-deficient pigs (Table 1); type: in vivo; conditions: 0.06 mg Se/kg i.m.
Procedure: as §4, §5, §6, §7

[8] = in words, four weeks after treatment
[9] = mean of five control piglets, serum, four weeks later, 200 mg Fe^+3 ferric dextran i.m.

| Compound | selenium status of control animals [1] | mean increase in the erythrocyte count (erythrocyte count) | serum level of glutathione peroxidase four weeks later (glutathione peroxidase [2]; [8]) | mean glutathione peroxidase activity, control group (glutathione peroxidase [2]; [9]) [IU/l] | serum level of selenium four weeks later [3, 8] | mean selenium level, control group [3, 9] [ng/mL] | weight increase of control animals [4] | elimination of selenium from the organism [5] | half-life of selenium in the organism [5] | gSH-Px, 0-sample (glutathione peroxidase [6]; individual pigs, 0-sample (before dosing), 0.06 mg Se/kg i.m., with ferric dextran 200 mg Fe per dose for animals 4-6) | gSH-Px at day 8 (glutathione peroxidase [6]; individual pigs, day 8, 0.06 mg Se/kg i.m., with ferric dextran 200 mg Fe per dose for animals 4-6) | gSH-Px at day 15 (glutathione peroxidase [6]; individual pigs, day 15, 0.06 mg Se/kg i.m., with ferric dextran 200 mg Fe per dose for animals 4-6) | Mean gSH-Px, 0-sample (glutathione peroxidase [6]; mean of 3 pigs, 0-sample (before dosing), 0.06 mg Se/kg i.m.) [IU/l] | Mean gSH-Px at day 8 (glutathione peroxidase [6]; mean of 3 pigs, day 8, 0.06 mg Se/kg i.m.) [IU/l] | Mean gSH-Px at day 15 (glutathione peroxidase [6]; mean of 3 pigs, day 15, 0.06 mg Se/kg i.m.) [IU/l] | serum selenium level over 15 days ([7]; in words) | Mean Se, 0-sample ([7]; mean of 3 pigs, serum, 0-sample (before dosing)) [ng/mL] | Mean Se at day 8 ([7]; mean of 3 pigs, serum, day 8, 11520 min) [ng/mL] | Mean Se at day 15 ([7]; mean of 3 pigs, serum, day 15, 21600 min) [ng/mL] |
| --- | --- | --- | --- | --- | --- | --- | --- | --- | --- | --- | --- | --- | --- | --- | --- | --- | --- | --- | --- |
| ferric dextran | severe selenium deficiency | 1.41±0.30 10^12 /l | indicate a deficiency state | 710.8 | indicate a deficiency state | 55.4 | retardation in weight increase | – | – | – | – | – | – | – | – | – | – | – | – |
| O=[Se]([O-])[O-].[Na+].[Na+] [sodium selenite] | – | – | – | – | – | – | – | rapidly eliminated | short | 373 IU/l and 298 IU/l and 325 IU/l | 1065 IU/l and 796 IU/l and 926 IU/l | 632 IU/l and 437 IU/l and 484 IU/l | 332 | 926 | 518 | remained elevated for only 8 days | 23 | 49 | 35 |

— patent US4476114A, “Iron-selenium preparation” (Orion-yhtyma Oy, priority 1982, dated 1984)
